Test results: ChEMBL document CHEMBL3046758, “Biological evaluation of novel 1,4-dithiine derivatives as potential antimicrobial agents” (Med Chem Res, 2011)
pEC50: −log10 of the molar value.

What was measured:
[1] = tested on: Candida albicans; test: Antifungal activity against Candida albicans DSM 1386 after 24 to 48 hr by broth microdilution method; format: functional
[2] = tested on: Pseudomonas aeruginosa; test: Antibacterial activity against Pseudomonas aeruginosa DSM 1117 after 16 to 20 hr by broth microdilution method; format: functional
[3] = tested on: Staphylococcus aureus; test: Antibacterial activity against Staphylococcus aureus DSM 2569 after 16 to 20 hr by broth microdilution method; format: functional
[4] = tested on: Aspergillus niger; test: Antifungal activity against Aspergillus niger DSM 1988 after 24 to 48 hr by broth microdilution method; format: functional
[5] = Cytotoxicity against Homo sapiens (human) MT4 cells containing integrated HTLV-1 genome after 96 hr by MTT assay; format: cell-based
[6] = tested on: Poliovirus 1; test: Antiviral activity against Human poliovirus 1 strain Sabin infected African green monkey Vero76 cells assessed as reduction of virus-induced plaque reduction after 2 days by MTT assay; format: functional, organism-based; conditions: Enterovirus C, Vero 76, 48 h
[7] = tested on: Vaccinia virus; test: Antiviral activity against Vaccinia virus infected African green monkey Vero76 cells assessed as reduction of virus-induced plaque reduction after 3 days by MTT assay; format: functional, organism-based; conditions: Orthopoxvirus vaccinia, Vero 76, 72 h
[8] = tested on: Vesicular stomatitis virus; test: Antiviral activity against Vesicular stomatitis virus infected african green monkey Vero76 cells assessed as reduction of virus-induced plaque reduction after 3 days by MTT assay; format: functional, organism-based; conditions: Vero 76, 72 h
[9] = Selectivity index, ratio of CC50 for green monkey Vero76 cells to EC50 for HSV1; design: species or system Vero 76
[10] = tested on: Human alphaherpesvirus 1; test: Antiviral activity against Human herpesvirus 1 infected African green monkey Vero76 cells assessed as reduction of virus-induced plaque reduction after 3 days by MTT assay; format: functional, organism-based; conditions: Human alphaherpesvirus 1, Vero 76, 72 h
[11] = Cytotoxicity against Chlorocebus aethiops (African green monkey) Vero76 cells after 48 to 120 hr by MTT assay; format: cell-based, Vero 76; conditions: chlorocebus sabaeus
[12] = tested on: Coxsackievirus B2; test: Antiviral activity against Human coxsackievirus B2 infected African green monkey Vero76 cells assessed as reduction of virus-induced plaque reduction after 3 days by MTT assay; format: functional, organism-based; conditions: Enterovirus B, Vero 76, 72 h
[13] = tested on: Mammalian orthoreovirus 1; test: Antiviral activity against Mammalian orthoreovirus 1 infected BHK21 cells assessed as inhibition of virus-induced cytopathogenicity after 3 to 4 days by MTT assay; format: functional, organism-based; conditions: Mammalian orthoreovirus 1, BHK-21
[14] = tested on: Yellow fever virus; test: Antiviral activity against Yellow fever virus infected BHK21 cells assessed as inhibition of virus-induced cytopathogenicity after 3 to 4 days by MTT assay; format: functional, organism-based; conditions: BHK-21
[15] = Cytotoxicity against Cricetinae BHK21 (hamster normal kidney fibroblast) cells after 48 to 120 hr by MTT assay; format: cell-based, Mesocricetus auratus, BHK-21; conditions: BHK21 cells (normal kidney fibroblasts)
[16] = tested on: Bovine viral diarrhea virus 1; test: Antiviral activity against Bovine viral diarrhea virus 1 infected MDBK cells assessed as inhibition of virus-induced cytopathogenicity after 3 to 4 days by MTT assay; format: functional, organism-based; conditions: Bovine viral diarrhea virus isolates and strains
[17] = Cytotoxicity against Bos taurus MDBK cells after 48 to 120 hr by MTT assay; format: cell-based; conditions: cattle
[18] = tested on: Human immunodeficiency virus 1; test: Antiviral activity against Human immunodeficiency virus 1 infected human MT4 cells assessed as inhibition of virus-induced cytopathogenicity after 4 days by MTT assay; format: functional, organism-based; conditions: Human immunodeficiency virus 1, MT4, 96 h
[19] = Selectivity index, ratio of CC50 for green monkey Vero76 cells to EC50 for Coxsackievirus B2; format: toxicity, cell-based, Vero 76; conditions: read-out: Ratio CC50/EC50

Structure (SMILES) | MIC [1] | MIC [2] | MIC [3] | MIC [4] | CC50 at 96 h [5] | pEC50 [6] | pEC50 [7] | pEC50 [12] | pEC50 [18] | other results
O=C1OC(=O)C2=C1SCCS2 | > 100 µM | > 100 µM | > 100 µM | > 100 µM |  |  |  |  |  | 
CC(C)(C)NCC(O)CN1C(=O)C2=C(SCCS2)C1=O (stereo unspecified) | > 100 µM | > 100 µM | > 100 µM | > 100 µM | > 100 µM |  |  |  |  | 
O=C1C2=C(SCCS2)C(=O)N1CCCN1CCN(c2ccccc2O)CC1 |  |  |  |  | > 100 µM |  |  |  |  | 
O=C1C2=C(SCCS2)C(=O)N1CCCCN1CCN(Cc2ccccc2)CC1 | > 100 µM | > 100 µM | > 100 µM | > 100 µM | > 100 µM | < 4.00 | < 4.00 | < 4.00 | < 4.00 | pEC50 [8]: < 4.00; Ratio CC50/EC50 [9]: >3.45; pEC50 [10]: 4.54; CC50 [11]: > 100 µM; pEC50 [13]: < 4.00; pEC50 [14]: < 4.00; CC50 [15]: > 100 µM; pEC50 [16]: < 4.00; CC50 [17]: > 100 µM
O=C1NC(=O)C2=C1SCCS2 | > 100 µM | > 100 µM | > 100 µM | > 100 µM | > 100 µM |  |  |  |  | 
COc1c(C)c2c(c(O)c1C/C=C(\C)CCC(=O)O)C(=O)OC2 [MYCOPHENOLIC ACID] |  |  |  |  |  |  | 5.74 |  |  | 
O=C1C2=C(SCCS2)C(=O)N1CCCCN1CCN(c2ccccn2)CC1 | > 100 µM | > 100 µM | > 100 µM | > 100 µM | > 100 µM | < 4.00 | < 4.00 | 4.49 | < 4.00 | pEC50 [8]: < 4.00; pEC50 [10]: < 4.00; selectivity ratio [19]: > 3.12; CC50 [11]: > 100 µM; pEC50 [13]: < 4.00; pEC50 [14]: < 4.00; CC50 [15]: > 100 µM; pEC50 [16]: < 4.00; CC50 [17]: > 100 µM
COc1ccccc1N1CCN(CCCCN2C(=O)C3=C(SCCS3)C2=O)CC1 |  |  |  |  | > 100 µM |  |  |  |  | 
O=C1C2=C(SCCS2)C(=O)N1CCCCN1CCN(c2ccc(F)cc2)CC1 | > 100 µM | > 100 µM | > 100 µM | > 100 µM | > 100 µM | < 4.00 | < 4.00 | 4.68 | < 4.00 | pEC50 [8]: < 4.00; pEC50 [10]: < 4.00; selectivity ratio [19]: > 4.76; CC50 [11]: > 100 µM; pEC50 [13]: < 4.00; pEC50 [14]: < 4.00; CC50 [15]: > 100 µM; pEC50 [16]: < 4.00; CC50 [17]: > 100 µM
COc1ccccc1N1CCN(CCCN2C(=O)C3=C(SCCS3)C2=O)CC1 |  |  |  |  | > 100 µM |  |  |  |  | 
C#C[C@@]1(O)[C@H](O)[C@@H](CO)O[C@H]1n1ccc(N)nc1=O [2'-ETHYNYL-D-CYTIDINE] |  |  |  |  |  | 4.74 |  | 4.64 |  | 
O=C1C2=C(SCCS2)C(=O)N1CC(O)CN1CCCCC1 (stereo unspecified) | > 100 µM | > 100 µM | > 100 µM | > 100 µM | > 100 µM |  |  |  |  | 
Cc1cn([C@H]2C[C@H](N=[N+]=[N-])[C@@H](CO)O2)c(=O)[nH]c1=O [ZIDOVUDINE] |  |  |  |  | 50 µM |  |  |  | 8.00 | 
